According to ChEMBL document CHEMBL1275529, “Improved antimicrobial activity of linezolid against vancomycin-intermediate Staphylococcus aureus” (2008):
≈ marks a conversion by molar mass, not a printed value.

What was measured:
Staphylococcus aureus [1] = assay: Antibacterial activity against vancomycin-susceptible Staphylococcus aureus NJ after 24 hrs by Etest method; type: functional
Staphylococcus aureus [2] = assay: Antibacterial activity against vancomycin-susceptible Staphylococcus aureus MI after 24 hrs by Etest method; type: functional
Staphylococcus aureus [3] = assay: Antibacterial activity against vancomycin-susceptible Staphylococcus aureus Mu50 after 24 hrs by Etest method; details: Mu50, 24 h
Staphylococcus aureus [4] = assay: Antibacterial activity against vancomycin-intermediate Staphylococcus aureus BR5-1 after 24 hrs by Etest method; type: functional; details: BR5-1, 24 h
Staphylococcus aureus [5] = assay: Antibacterial activity against vancomycin-intermediate Staphylococcus aureus BR4 after 24 hrs by Etest method; type: functional; details: BR4, 24 h
Staphylococcus aureus [6] = assay: Antibacterial activity against vancomycin-intermediate Staphylococcus aureus BR3 after 24 hrs by Etest method; type: functional; details: BR3, 24 h
Staphylococcus aureus [7] = assay: Antibacterial activity against vancomycin-intermediate Staphylococcus aureus BR2 after 24 hrs by Etest method; type: functional; details: BR2, 24 h
Staphylococcus aureus [8] = assay: Antibacterial activity against vancomycin-intermediate Staphylococcus aureus BR1 after 24 hrs by Etest method; type: functional; details: BR1, 24 h
Staphylococcus aureus [9] = assay: Antibacterial activity against vancomycin-intermediate Staphylococcus aureus 99/3759-V after 24 hrs by Etest method; type: functional
Staphylococcus aureus [10] = assay: Antibacterial activity against vancomycin-intermediate Staphylococcus aureus AMC11094 after 24 hrs by Etest method; details: AMC11094, 24 h
Staphylococcus aureus [11] = assay: Antibacterial activity against vancomycin-intermediate Staphylococcus aureus IL after 24 hrs by Etest method
Staphylococcus aureus [12] = assay: Antibacterial activity against vancomycin-intermediate Staphylococcus aureus PC after 24 hrs by Etest method
Staphylococcus aureus [13] = assay: Antibacterial activity against vancomycin-intermediate Staphylococcus aureus NJ after 24 hrs by Etest method; type: functional
Staphylococcus aureus [14] = assay: Antibacterial activity against vancomycin-intermediate Staphylococcus aureus MI after 24 hrs by Etest method; type: functional
Staphylococcus aureus [15] = assay: Antibacterial activity against vancomycin-intermediate Staphylococcus aureus Mu50 after 24 hrs by Etest method; type: functional; details: Mu50, 24 h
Staphylococcus aureus [16] = assay: Antibacterial activity against vancomycin-susceptible Staphylococcus aureus 99/3700-W after 24 hrs by Etest method; type: functional
Staphylococcus aureus [17] = assay: Antibacterial activity against vancomycin-susceptible Staphylococcus aureus BR1 after 24 hrs by Etest method; type: functional; details: BR1, 24 h
Staphylococcus aureus [18] = assay: Antibacterial activity against vancomycin-susceptible Staphylococcus aureus BR4 after 24 hrs by Etest method; type: functional; details: BR4, 24 h
Staphylococcus aureus [19] = assay: Antibacterial activity against vancomycin-susceptible Staphylococcus aureus BR5-1 after 24 hrs by Etest method; type: functional; details: BR5-1, 24 h
Staphylococcus aureus [20] = assay: Antibacterial activity against vancomycin-intermediate Staphylococcus aureus Mu50 phenotypic revertant after 24 hrs by Etest method; type: functional; details: Mu50, 24 h
Staphylococcus aureus [21] = assay: Antibacterial activity against vancomycin-intermediate Staphylococcus aureus NJ phenotypic revertant after 24 hrs by Etest method
Staphylococcus aureus [22] = assay: Antibacterial activity against vancomycin-intermediate Staphylococcus aureus 99/3759-V phenotypic revertant after 24 hrs by Etest method; type: functional
Staphylococcus aureus [23] = assay: Antibacterial activity against vancomycin-intermediate Staphylococcus aureus 99/3700-W phenotypic revertant after 24 hrs by Etest method; type: functional
Staphylococcus aureus [24] = assay: Antibacterial activity against vancomycin-intermediate Staphylococcus aureus BR1 phenotypic revertant after 24 hrs by Etest method; type: functional; details: BR1, 24 h
Staphylococcus aureus [25] = assay: Antibacterial activity against vancomycin-susceptible Staphylococcus aureus N315-LR5-P1 assessed as inhibition of bacterial growth in Mueller-Hinton broth medium; type: functional
Staphylococcus aureus [26] = assay: Antibacterial activity against vancomycin-susceptible Staphylococcus aureus N315-LR5-P1 assessed as inhibition of bacterial growth in brain heart infusion broth medium; type: functional
Staphylococcus aureus [27] = assay: Antibacterial activity against vancomycin-susceptible Staphylococcus aureus N315-LR5-P1-1 assessed as inhibition of bacterial growth in Mueller-Hinton broth medium; type: functional
Staphylococcus aureus [28] = assay: Antibacterial activity against vancomycin-susceptible Staphylococcus aureus N315-LR5-P1-2 assessed as inhibition of bacterial growth in brain heart infusion broth medium; details: N315-LR5-P1-2, Brain
Staphylococcus aureus [29] = assay: Antibacterial activity against vancomycin-susceptible Staphylococcus aureus N315-LR5-P1-3 assessed as inhibition of bacterial growth in Mueller-Hinton broth medium; type: functional
Staphylococcus aureus [30] = assay: Antibacterial activity against vancomycin-susceptible Staphylococcus aureus N315-LR5-P1-4 assessed as inhibition of bacterial growth in Mueller-Hinton broth medium; type: functional
Staphylococcus aureus [31] = assay: Antibacterial activity against vancomycin-susceptible Staphylococcus aureus N315-LR5-P1-4 assessed as inhibition of bacterial growth in brain heart infusion broth medium; type: functional; details: N315-LR5-P1-4, Brain
Staphylococcus aureus [32] = assay: microbe, parasite or virus in culture; details: Staphylococcus aureus, 28160, 24 h
Description: Antibacterial activity against vancomycin-intermediate Staphylococcus aureus 28160 phenotypic revertant after 24 hrs by Etest method

Staphylococcus aureus [33] = assay: Antibacterial activity against vancomycin-intermediate Staphylococcus aureus 28160 after 24 hrs by Etest method; type: functional; details: Staphylococcus aureus, 28160, 24 h
Staphylococcus aureus [34] = assay: Antibacterial activity against vancomycin-intermediate Staphylococcus aureus LIM2 after 24 hrs by Etest method; type: functional; details: LIM2, 24 h
Staphylococcus aureus [35] = assay: Antibacterial activity against vancomycin-intermediate Staphylococcus aureus 99/3700-W after 24 hrs by Etest method; type: functional
Staphylococcus aureus [36] = assay: Antibacterial activity against vancomycin-susceptible Staphylococcus aureus AMC11094 after 24 hrs by Etest method; type: functional; details: AMC11094, 24 h
Staphylococcus aureus [37] = assay: Antibacterial activity against vancomycin-susceptible Staphylococcus aureus 99/3759-V after 24 hrs by Etest method; type: functional
Staphylococcus aureus [38] = assay: Antibacterial activity against vancomycin-susceptible Staphylococcus aureus 28160 after 24 hrs by Etest method; type: functional; details: Staphylococcus aureus, 28160, 24 h
Staphylococcus aureus [39] = assay: Antibacterial activity against vancomycin-intermediate Staphylococcus aureus MI phenotypic revertant after 24 hrs by Etest method; type: functional
Staphylococcus aureus [40] = assay: Antibacterial activity against vancomycin-intermediate Staphylococcus aureus LIM2 phenotypic revertant after 24 hrs by Etest method; type: functional; details: LIM2, 24 h
Staphylococcus aureus [41] = assay: Antibacterial activity against vancomycin-intermediate Staphylococcus aureus BR5-1 phenotypic revertant after 24 hrs by Etest method; type: functional; details: BR5-1, 24 h

SMILES	MIC (Staphylococcus aureus [1]) [µg/mL]	MIC (Staphylococcus aureus [2]) [µg/mL]	MIC (Staphylococcus aureus [4]) [µg/mL]	MIC (Staphylococcus aureus [5]) [µg/mL]	MIC (Staphylococcus aureus [6]) [µg/mL]	MIC (Staphylococcus aureus [7]) [µg/mL]	MIC (Staphylococcus aureus [8]) [µg/mL]	MIC (Staphylococcus aureus [9]) [µg/mL]	MIC (Staphylococcus aureus [13]) [µg/mL]	MIC (Staphylococcus aureus [14]) [µg/mL]	MIC (Staphylococcus aureus [15]) [µg/mL]	MIC (Staphylococcus aureus [16]) [µg/mL]	MIC (Staphylococcus aureus [17]) [µg/mL]	MIC (Staphylococcus aureus [18]) [µg/mL]	MIC (Staphylococcus aureus [19]) [µg/mL]	MIC (Staphylococcus aureus [20]) [µg/mL]	MIC (Staphylococcus aureus [22]) [µg/mL]	MIC (Staphylococcus aureus [23]) [µg/mL]	MIC (Staphylococcus aureus [24]) [µg/mL]	MIC (Staphylococcus aureus [25]) [µg/mL]	also measured
CN[C@H](CC(C)C)C(=O)N[C@H]1C(=O)N[C@@H](CC(N)=O)C(=O)N[C@H]2C(=O)N[C@H]3C(=O)N[C@H](C(=O)N[C@H](C(=O)O)c4cc(O)cc(O)c4-c4cc3ccc4O)[C@H](O)c3ccc(c(Cl)c3)Oc3cc2cc(c3O[C@@H]2O[C@H](CO)[C@@H](O)[C@H](O)[C@H]2O[C@H]2C[C@](C)(N)[C@H](O)[C@H](C)O2)Oc2ccc(cc2Cl)[C@H]1O [VANCOMYCIN]	3 (≈ 2.07 µM)	1.25 (≈ 0.863 µM)	5 (≈ 3.45 µM)	6 (≈ 4.14 µM)	8 (≈ 5.52 µM)	6 (≈ 4.14 µM)	6 (≈ 4.14 µM)	5 (≈ 3.45 µM)	8 (≈ 5.52 µM)	8 (≈ 5.52 µM)	6 (≈ 4.14 µM)	1.5 (≈ 1.04 µM)	1.5 (≈ 1.04 µM)	1.5 (≈ 1.04 µM)	1.25 (≈ 0.863 µM)	8 (≈ 5.52 µM)	8 (≈ 5.52 µM)	3 (≈ 2.07 µM)	3 (≈ 2.07 µM)	0.75 (≈ 0.518 µM)	MIC (Staphylococcus aureus [3]): 2.5 µg/mL (≈ 1.73 µM); MIC (Staphylococcus aureus [10]): 6 µg/mL (≈ 4.14 µM); MIC (Staphylococcus aureus [11]): 6 µg/mL (≈ 4.14 µM); MIC (Staphylococcus aureus [12]): 6 µg/mL (≈ 4.14 µM); MIC (Staphylococcus aureus [21]): 5 µg/mL (≈ 3.45 µM); MIC (Staphylococcus aureus [26]): 1.25 µg/mL (≈ 0.863 µM); MIC (Staphylococcus aureus [27]): 1.25 µg/mL (≈ 0.863 µM); MIC (Staphylococcus aureus [28]): 3 µg/mL (≈ 2.07 µM); MIC (Staphylococcus aureus [29]): 2.5 µg/mL (≈ 1.73 µM); MIC (Staphylococcus aureus [30]): 3 µg/mL (≈ 2.07 µM); MIC (Staphylococcus aureus [31]): 5 µg/mL (≈ 3.45 µM); MIC (Staphylococcus aureus [32]): 3 µg/mL (≈ 2.07 µM)
CC(=O)NC[C@H]1CN(c2ccc(N3CCOCC3)c(F)c2)C(=O)O1 [LINEZOLID]	3 (≈ 8.89 µM)	3 (≈ 8.89 µM)	1.5 (≈ 4.45 µM)	1.5 (≈ 4.45 µM)	1 (≈ 2.96 µM)	1 (≈ 2.96 µM)	1.25 (≈ 3.71 µM)	1 (≈ 2.96 µM)	1.25 (≈ 3.71 µM)	1.5 (≈ 4.45 µM)	0.38 (≈ 1.13 µM)	3 (≈ 8.89 µM)	1.5 (≈ 4.45 µM)	3 (≈ 8.89 µM)	3 (≈ 8.89 µM)	1.5 (≈ 4.45 µM)	1.5 (≈ 4.45 µM)	1.25 (≈ 3.71 µM)	1.5 (≈ 4.45 µM)	3 (≈ 8.89 µM)	MIC (Staphylococcus aureus [33]): 1.5 µg/mL (≈ 4.45 µM); MIC (Staphylococcus aureus [34]): 1 µg/mL (≈ 2.96 µM); MIC (Staphylococcus aureus [35]): 1 µg/mL (≈ 2.96 µM); MIC (Staphylococcus aureus [36]): 3 µg/mL (≈ 8.89 µM); MIC (Staphylococcus aureus [37]): 3 µg/mL (≈ 8.89 µM); MIC (Staphylococcus aureus [38]): 3 µg/mL (≈ 8.89 µM); MIC (Staphylococcus aureus [39]): 1.5 µg/mL (≈ 4.45 µM); MIC (Staphylococcus aureus [40]): 1.5 µg/mL (≈ 4.45 µM); MIC (Staphylococcus aureus [41]): 3 µg/mL (≈ 8.89 µM); MIC (Staphylococcus aureus [26]): 3 µg/mL (≈ 8.89 µM); MIC (Staphylococcus aureus [27]): 2.5 µg/mL (≈ 7.41 µM); MIC (Staphylococcus aureus [29]): 1.75 µg/mL (≈ 5.19 µM); MIC (Staphylococcus aureus [30]): 1.5 µg/mL (≈ 4.45 µM); MIC (Staphylococcus aureus [31]): 1.5 µg/mL (≈ 4.45 µM)
